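Results reflect a 48-hour exposure of cells in 96-well plates to compound at five concentrations. GI50 is the concentration that inhibits growth by half. TGI: concentration producing complete growth inhibition.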
What was measured:
Experiment in all cases: growth of human tumour cells (NCI), 48 h
[1] = test system: CCRF-CEM leukemia
[2] = test system: HL-60(TB) leukemia
[3] = test system: IGROV1 ovarian
[4] = test system: K-562 leukemia
[5] = test system: KM12 colon
[6] = test system: SF-295 CNS
[7] = test system: SF-539 CNS
[8] = test system: SK-MEL-2 melanoma
[9] = test system: UACC-62 melanoma
[10] = test system: U251 CNS

SMILES | TGI [1] [µM] | TGI [2] [µM] | TGI [3] [µM] | TGI [4] [µM] | TGI [5] [µM] | TGI [6] [µM] | TGI [7] [µM] | TGI [8] [µM] | TGI [9] [µM] | GI50 [1] [µM] | GI50 [3] [µM] | GI50 [5] [µM] | GI50 [6] [µM] | GI50 [7] [µM] | GI50 [8] [µM] | GI50 [10] [µM] | TGI [10] [µM] | GI50 [2] [µM] | GI50 [4] [µM] | GI50 [9] [µM]
N#Cc1c(NN)nc(NN)c(C#N)c1-c1ccccc1 | > 100 | > 100 | > 100 | > 100 | > 100 | > 100 | > 100 | > 100 | > 100 |  |  |  |  |  |  |  |  |  |  | 
CCc1c(C#N)c(S[C@@H](C(N)=O)c2ccccc2)nc(N(C)C)c1C#N | > 100 |  | > 100 |  | > 100 | 55.3 | > 100 | > 100 |  | > 100 | 7.14 | > 100 | 3.81 | 4.65 | > 100 | 11 | 42.1 |  |  | 
O=c1cc2ccccc2nn1Cc1cccc(Cl)c1 | > 100 |  | > 100 | > 100 | > 100 | > 100 | > 100 | > 100 | > 100 |  |  |  |  |  |  |  | > 100 |  |  | 
Cc1ccc(/C=C2/SC(Nc3nc(-c4csc(NC5=NC(=O)/C(=C\c6ccc(C)cc6)S5)n4)cs3)=NC2=O)cc1 |  | 29.9 | > 50 | > 50 | > 50 | > 50 | 39.7 | > 50 | 13.6 |  | 24 | 3.47 | 6.66 | 13.5 | > 50 | 3.43 | > 50 | 2.03 | 1.91 | 1.95
Cc1ccc(-n2c3c(c4c(CN(C)C)c(O)ccc42)CCc2ccccc2C3=O)cc1 |  | 24.5 | 25.8 | 25.9 | 40 | 35.9 | 36 | 44.5 | 30.9 |  | 10.8 | 19.3 | 18.3 | 19.3 | 19.9 | 15.6 | 30.5 | 9.49 | 10.2 | 17
O=c1ccn(C2OC(CO/N=C/c3ccc(O)c(O)c3O)C(O)C2O)c(=O)[nH]1 (stereo unspecified) |  | 68.1 | 38.5 | 78.5 | > 100 | 24.1 | > 100 | > 100 | > 100 |  | 19.4 | 35.4 | 10.5 | 52.1 | 57.4 | 16.8 | 30.4 | 26.9 | 21.7 | 76.4
O=C(CNc1ccc2c(c1)C(=O)c1ccccc1C2=O)Nc1ccc2c(c1)C(=O)c1ccccc1C2=O |  | 4.35 | 2.7 |  | 2.73 | 2.89 | 3.46 | 2 | 1.95 |  | 0.681 | 1.4 | 1.46 | 1.78 | 0.697 | 0.449 | 1.57 | 1.57 |  | 0.631
COc1cc2cc(Oc3ccc(NC(=O)Nc4cccc(C(F)(F)F)c4)cc3)c(C)nc2cc1OC |  | 3.91 | 24.9 | 14 | 5.92 | 3.59 | 8.74 | 2.87 | 10.9 |  | 2.95 | 1.42 | 1.13 | 2.48 | 1.28 | 1.56 | 5.61 | 1.56 | 1.73 | 1.84
O=C(Nc1cc(Cl)cc(Cl)c1)c1ccc(NC2=C(Cl)C(=O)N(Cc3ccc(Cl)cc3Cl)C2=O)cc1 | 0.819 |  | 7.17 | 10.7 | 47.7 | > 100 | 25.3 | 43.9 | 38.2 | 0.22 | 2.15 | 13.6 | 43.2 | 6.94 | 23.5 | 16.8 | 51.6 |  | 1.33 | 18.3
CCOc1ccccc1NC(=O)CC1SC(=Nc2ccc([N+](=O)[O-])cc2)NC1=O (stereo unspecified) | 54.3 | > 100 | 61.4 |  | 37 | 34.9 |  | 41.5 | 39.9 |  |  |  |  |  |  |  | 28 |  |  | 
Cc1cc(S(N)(=O)=O)c(S/C(CC(C)C)=N\Nc2ccc([N+](=O)[O-])cc2)cc1Cl |  | > 100 | 21.2 | 97 | 13.2 | 5.7 | 29.7 | 34.6 | 8.89 |  | 6.77 | 3.32 | 2.31 | 16.2 | 8.22 | 10.6 | 25.5 | 7.07 | 5.82 | 3.13
COC(=O)/C([Se]c1c(C)cc(C)cc1C)=C(\[Se]c1c(C)cc(C)cc1C)C(=O)OC | > 100 | > 100 | > 100 | > 100 | > 100 | > 100 |  | > 100 | > 100 |  |  |  |  |  |  |  | > 100 |  |  | 
Fc1ccc2c(c1)c(-c1nc(-c3c[nH]c4ncccc34)cs1)cn2CCCN1CCCCC1 |  |  |  | 3.6 |  |  | 3.1 | 4.25 |  |  |  |  |  | 1.67 | 1.96 | 1.82 | 3.33 |  | 1.72 | 
COc1c(OC)c(OC)c2c(c1OC)c(=O)c1ccccc1n2C |  | > 100 | > 100 | > 100 | > 100 | > 100 | > 100 | > 100 | > 100 |  |  |  |  |  |  |  | > 100 |  |  | 
c1ccc2[nH]c(-c3ccc(NN=Nc4ccncc4)cc3)nc2c1 |  | > 100 | > 100 | 61.8 | > 100 | > 100 |  | > 100 | > 100 |  | > 100 | 23 | 16.4 |  | 15.4 | 27.2 | > 100 | > 100 | 14.6 | 75.1
N#C/C(=C/c1ccc[nH]1)P(=O)(O)O | > 100 | > 100 |  | > 100 | > 100 | > 100 | > 100 | > 100 | > 100 |  |  |  |  |  |  |  | > 100 |  |  | 
Oc1cc(O)c2c(-c3c(O)c(-c4ccc(O)c(O)c4)[o+]c4cc(O)cc(O)c34)c(O)c(-c3ccc(O)c(O)c3)[o+]c2c1 |  |  | > 100 |  | > 100 | > 100 | 50.3 |  | 46.7 |  |  |  |  |  |  |  | > 100 |  |  | 
